From ChEMBL document CHEMBL1201862, “PubChem BioAssay data set” (2004)
The source made the active and inactive calls.

Legend:
[1] = target: T1, Probable nicotinate-nucleotide adenylyltransferase (Staphylococcus aureus (strain N315), UniProt P65502); assay type: functional, Staphylococcus aureus subsp. aureus N315;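 as to IC50 Mean: confirmatory dose-response retesting of NadD inhibitor hits first found in an ultra-high-throughput screen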
[2] = target: T1, Probable nicotinate-nucleotide adenylyltransferase; assay type: functional, Staphylococcus aureus subsp. aureus N315; details: read-out: IC50_Mean
[3] = viability of PTEN-deleted HCT116 cells – cell-based, HCT116 PTEN knockout, dose response (AID 1047); assay type: functional;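 also: HCT116 colon tumor cells with PTEN knocked out; cells exposed to compound for 60 hours before readout; potency for loss of cell viability measured by luminescence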
[4] = Luminescence Cell-Based Dose Retest to Confirm Inhibitors of Cancer Stem Cells. [Related pubchem assays (depositor defined):AID2717, AID2721]; assay type: functional; details: Homo sapiens
[5] = viability of HCT116 lacking mutant beta-catenin – cell-based, human colon tumor, dose response (AID 1045); assay type: functional;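 also: HCT116 colon tumor cells with beta catenin knocked out; cells exposed to compound for 60 hours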
[6] = target: T2, Histone-lysine N-methyltransferase NSD2 (Homo sapiens, UniProt O96028); assay type: biochemical
T2 sequence (O96028 whole entry): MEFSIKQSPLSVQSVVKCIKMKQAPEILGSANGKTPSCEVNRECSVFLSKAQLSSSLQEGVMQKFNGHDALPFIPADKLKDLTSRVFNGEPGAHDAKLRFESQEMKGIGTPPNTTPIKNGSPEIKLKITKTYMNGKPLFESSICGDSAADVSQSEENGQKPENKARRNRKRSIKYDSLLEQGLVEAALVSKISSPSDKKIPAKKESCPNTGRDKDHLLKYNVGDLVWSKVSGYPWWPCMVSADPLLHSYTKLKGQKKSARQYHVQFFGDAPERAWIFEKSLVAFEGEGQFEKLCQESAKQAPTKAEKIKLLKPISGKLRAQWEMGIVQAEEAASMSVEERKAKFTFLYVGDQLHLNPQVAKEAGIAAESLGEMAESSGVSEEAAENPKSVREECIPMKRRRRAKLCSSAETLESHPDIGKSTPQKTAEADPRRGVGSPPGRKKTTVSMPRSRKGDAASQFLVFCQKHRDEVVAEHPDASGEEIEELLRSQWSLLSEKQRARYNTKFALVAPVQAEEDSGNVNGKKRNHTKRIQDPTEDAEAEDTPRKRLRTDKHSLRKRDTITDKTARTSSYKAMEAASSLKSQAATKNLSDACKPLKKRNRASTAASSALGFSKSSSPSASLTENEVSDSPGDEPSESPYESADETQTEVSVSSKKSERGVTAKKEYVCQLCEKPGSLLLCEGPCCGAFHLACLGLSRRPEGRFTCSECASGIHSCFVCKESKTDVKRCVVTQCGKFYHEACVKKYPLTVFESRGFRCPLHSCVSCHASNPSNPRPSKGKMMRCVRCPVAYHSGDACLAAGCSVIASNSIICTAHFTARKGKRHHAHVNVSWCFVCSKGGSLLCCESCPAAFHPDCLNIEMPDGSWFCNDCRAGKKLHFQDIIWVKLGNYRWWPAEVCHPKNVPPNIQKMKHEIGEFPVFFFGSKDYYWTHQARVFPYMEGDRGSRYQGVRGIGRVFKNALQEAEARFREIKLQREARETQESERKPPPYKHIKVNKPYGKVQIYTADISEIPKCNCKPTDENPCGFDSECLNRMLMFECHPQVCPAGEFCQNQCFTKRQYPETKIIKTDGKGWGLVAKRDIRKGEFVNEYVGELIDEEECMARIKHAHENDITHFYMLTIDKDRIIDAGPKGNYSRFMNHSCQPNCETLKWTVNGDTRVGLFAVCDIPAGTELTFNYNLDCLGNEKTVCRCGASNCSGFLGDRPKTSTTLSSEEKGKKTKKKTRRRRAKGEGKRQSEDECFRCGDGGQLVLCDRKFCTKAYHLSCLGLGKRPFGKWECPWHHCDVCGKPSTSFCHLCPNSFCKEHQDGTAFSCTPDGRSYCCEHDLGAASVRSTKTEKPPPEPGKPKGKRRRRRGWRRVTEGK

Protein RecA = target: T3, Protein RecA (Mycobacterium tuberculosis, UniProt P9WHJ3); experiment: Fluorescence Cell-Free Homogeneous Dose Retest to Identify Inhibitors of RecA-Intein Splicing Activity. [Related pubchem assays (depositor defined):AID2097, AID2223, AID489010, AID492950]; assay type: functional
T3 sequence (P9WHJ3 whole entry): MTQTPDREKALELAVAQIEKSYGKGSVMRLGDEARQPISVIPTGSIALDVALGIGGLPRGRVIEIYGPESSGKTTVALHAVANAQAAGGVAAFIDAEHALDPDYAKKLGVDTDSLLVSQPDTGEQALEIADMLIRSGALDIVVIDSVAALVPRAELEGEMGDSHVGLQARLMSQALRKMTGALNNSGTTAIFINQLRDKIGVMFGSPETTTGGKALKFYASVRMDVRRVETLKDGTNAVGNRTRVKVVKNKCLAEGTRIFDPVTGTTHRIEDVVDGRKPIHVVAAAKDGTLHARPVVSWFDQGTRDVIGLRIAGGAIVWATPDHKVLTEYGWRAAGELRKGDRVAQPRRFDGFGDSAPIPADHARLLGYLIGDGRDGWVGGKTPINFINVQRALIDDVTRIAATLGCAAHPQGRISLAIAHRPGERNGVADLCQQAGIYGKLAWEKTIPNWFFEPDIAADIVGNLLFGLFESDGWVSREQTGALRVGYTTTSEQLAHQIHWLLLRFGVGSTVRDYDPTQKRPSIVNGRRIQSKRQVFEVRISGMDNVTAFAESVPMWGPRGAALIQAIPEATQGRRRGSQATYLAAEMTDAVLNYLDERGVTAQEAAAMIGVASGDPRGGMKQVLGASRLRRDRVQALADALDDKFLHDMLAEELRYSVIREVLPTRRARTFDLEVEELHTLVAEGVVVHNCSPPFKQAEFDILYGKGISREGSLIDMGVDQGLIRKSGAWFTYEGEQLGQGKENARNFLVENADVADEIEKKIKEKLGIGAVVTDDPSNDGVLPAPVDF

[7] = target: T4, Replicative DNA helicase DnaB (Mycobacterium tuberculosis, UniProt P9WMR3); experiment: DnaB intein splicing inhibitors, dose response, biochemical, cell-free fluorescence (AID 449749); assay type: functional
T4 sequence (P9WMR3 whole entry): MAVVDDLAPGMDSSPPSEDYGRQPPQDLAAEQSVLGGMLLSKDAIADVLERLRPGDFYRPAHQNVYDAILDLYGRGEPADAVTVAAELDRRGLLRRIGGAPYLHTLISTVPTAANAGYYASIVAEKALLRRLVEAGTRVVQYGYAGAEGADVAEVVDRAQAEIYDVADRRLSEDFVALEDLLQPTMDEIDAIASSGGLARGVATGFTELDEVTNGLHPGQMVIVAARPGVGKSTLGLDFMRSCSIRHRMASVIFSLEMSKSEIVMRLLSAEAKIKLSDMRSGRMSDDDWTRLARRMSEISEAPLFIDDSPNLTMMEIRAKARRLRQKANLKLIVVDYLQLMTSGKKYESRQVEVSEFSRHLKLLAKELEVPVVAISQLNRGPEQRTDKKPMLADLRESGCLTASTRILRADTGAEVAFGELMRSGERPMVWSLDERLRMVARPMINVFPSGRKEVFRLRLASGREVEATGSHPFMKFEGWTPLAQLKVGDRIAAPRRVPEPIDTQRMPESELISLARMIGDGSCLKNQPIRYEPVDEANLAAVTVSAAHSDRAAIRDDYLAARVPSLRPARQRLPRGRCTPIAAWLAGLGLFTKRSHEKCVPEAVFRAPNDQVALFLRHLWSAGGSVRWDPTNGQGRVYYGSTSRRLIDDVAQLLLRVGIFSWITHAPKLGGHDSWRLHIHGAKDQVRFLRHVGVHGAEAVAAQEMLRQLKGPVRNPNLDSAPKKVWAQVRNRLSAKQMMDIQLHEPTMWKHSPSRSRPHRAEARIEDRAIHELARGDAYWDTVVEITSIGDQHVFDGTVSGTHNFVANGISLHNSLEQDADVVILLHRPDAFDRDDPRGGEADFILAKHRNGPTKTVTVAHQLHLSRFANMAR

[8] = target: G-protein coupled receptor 35 (Homo sapiens, UniProt Q9HC97); experiment: inhibition of zaprinast-stimulated GPR35 beta-arrestin translocation – imaging, U2OS, beta-arrestin-GFP, zaprinast agonist, primary screen (AID 2058); assay type: functional;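 also: antagonist potency meaning inhibition of agonist-induced arrestin redistribution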
G-protein coupled receptor 35, sequence (Q9HC97 whole entry): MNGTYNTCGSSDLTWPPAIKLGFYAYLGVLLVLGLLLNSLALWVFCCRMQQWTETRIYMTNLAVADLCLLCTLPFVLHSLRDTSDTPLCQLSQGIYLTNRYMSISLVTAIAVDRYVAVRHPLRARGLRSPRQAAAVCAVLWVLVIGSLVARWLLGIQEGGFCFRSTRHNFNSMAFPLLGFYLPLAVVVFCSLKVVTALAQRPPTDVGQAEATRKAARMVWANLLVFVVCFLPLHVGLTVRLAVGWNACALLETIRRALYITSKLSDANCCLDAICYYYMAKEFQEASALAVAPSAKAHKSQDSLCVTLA

[9] = toxicity toward HepG2 liver cells – cell-based, plate reader, cherry-pick, antagonist series, cytotoxicity control, dose response (AID 743416); assay type: functional
[10] = blockers of bursicon-stimulated LGR2 cAMP reporter – cell-based, HEK293, CRE-luciferase reporter, cherry pick, set 2, dose response (AID 743343); assay type: functional;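 also: transfected cells were stimulated with diluted bursicon conditioned medium after compound addition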
Protein skinhead-1 = target: T5, Protein skinhead-1 (Caenorhabditis elegans, UniProt P34707); assay type: functional
T5 sequence (P34707 whole entry): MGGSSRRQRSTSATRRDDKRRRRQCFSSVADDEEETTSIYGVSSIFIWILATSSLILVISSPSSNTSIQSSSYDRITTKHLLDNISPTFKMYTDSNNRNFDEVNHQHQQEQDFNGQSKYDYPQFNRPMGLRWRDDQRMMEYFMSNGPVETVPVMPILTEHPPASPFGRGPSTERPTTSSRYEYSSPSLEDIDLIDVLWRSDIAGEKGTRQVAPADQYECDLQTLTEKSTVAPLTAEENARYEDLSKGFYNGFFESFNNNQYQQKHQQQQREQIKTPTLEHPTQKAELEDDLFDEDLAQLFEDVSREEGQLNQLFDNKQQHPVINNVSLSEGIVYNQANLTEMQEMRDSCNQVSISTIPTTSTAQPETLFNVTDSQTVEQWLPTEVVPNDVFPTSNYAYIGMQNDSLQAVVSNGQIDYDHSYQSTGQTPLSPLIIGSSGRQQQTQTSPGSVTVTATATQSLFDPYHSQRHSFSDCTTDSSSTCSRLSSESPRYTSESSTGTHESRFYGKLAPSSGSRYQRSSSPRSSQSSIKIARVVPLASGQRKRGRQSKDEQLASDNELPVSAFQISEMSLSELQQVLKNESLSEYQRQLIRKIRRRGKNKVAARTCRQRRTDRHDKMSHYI

[11] = viability loss in HEK293 cells – cell-based, plate reader, cherry-picked samples, cytotoxicity control, dose response (AID 743446); assay type: functional
[12] = blockade of melanocortin 4 receptor signaling – cell-based, plate reader, cherry pick, counter-screen for LGR2 antagonist project, dose response (AID 743444); assay type: functional;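 also: transfected HEK 293 cells stimulated with alpha-MSH peptide; potency of inhibitors of the alpha-MSH evoked signal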
[13] = A549 cell cytotoxicity, dose response, cytotoxicity control, plate reader, cherry-pick, antagonist series (AID 743412); assay type: functional, cell-based
[14] = OVCAR-3 cell viability loss – plate reader, dry powder samples, PAX8 inhibitor project, dose response (AID 743044); assay type: functional, cell-based
Paired box protein Pax-8 = Paired box protein Pax-8 (Homo sapiens, UniProt Q06710); experiment: PAX8 transcriptional activity inhibition in RMG-I – RMG-I cells, luciferase, cherry-pick, dose response (AID 687027); assay type: functional, cell-based;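 also: luciferase reporter driven by Pax8 target thyroperoxidase promoter measured by SteadyGlo luminescence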
Paired box protein Pax-8, sequence (Q06710 whole entry): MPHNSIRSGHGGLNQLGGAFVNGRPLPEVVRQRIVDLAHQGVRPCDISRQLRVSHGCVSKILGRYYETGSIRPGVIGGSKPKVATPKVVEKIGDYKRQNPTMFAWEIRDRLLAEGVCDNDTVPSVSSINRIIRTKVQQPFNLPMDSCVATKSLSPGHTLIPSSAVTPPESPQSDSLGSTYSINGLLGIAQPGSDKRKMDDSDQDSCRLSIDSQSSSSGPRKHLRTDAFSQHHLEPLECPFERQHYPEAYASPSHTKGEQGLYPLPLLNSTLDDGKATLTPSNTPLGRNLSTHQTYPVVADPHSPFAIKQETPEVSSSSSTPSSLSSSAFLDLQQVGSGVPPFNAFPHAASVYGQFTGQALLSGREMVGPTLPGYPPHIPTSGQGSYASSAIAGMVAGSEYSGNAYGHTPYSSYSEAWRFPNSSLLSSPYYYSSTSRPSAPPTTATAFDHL

[15] = intracellular Trypanosoma cruzi inhibitors in host cells – cell-based, plate reader, cherry-pick samples, set 3, dose response (AID 651818); assay type: functional;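 also: compounds incubated with infected cells for about four days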
[16] = OVCAR8 cell viability loss – plate reader, dry powder samples, PAX8 project, dose response (AID 743197); assay type: functional, cell-based; details: OVCAR-8
[17] = general mammalian cell viability loss – inhibitor set, cherry-pick, set 2, cytotoxicity control for miR-122 modulator project, dose response (AID 720697); assay type: functional, cell-based

T1 sequence (P65502 whole entry): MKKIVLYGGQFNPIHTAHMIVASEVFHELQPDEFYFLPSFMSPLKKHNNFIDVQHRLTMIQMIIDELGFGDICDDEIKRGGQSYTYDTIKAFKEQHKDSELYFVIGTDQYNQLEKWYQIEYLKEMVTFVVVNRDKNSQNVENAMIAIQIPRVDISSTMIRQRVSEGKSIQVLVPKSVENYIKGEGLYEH

In the case of NS(=O)(=O)c1ccc(NC(=O)COC(=O)c2c3c(nc4ccccc24)/C(=C\c2ccc4c(c2)OCO4)CCC3)cc1, the IC50 [1] is reported as 11.9 µM (active), the IC50 [2] is reported as 21.1 µM (active) and the EC50 [3] is reported as 17.5 µM (active). For the same compound, the AC50 [4] was 3.72 µM (active) and the EC50 [5] was 18.3 µM (active).

In the case of O=C(Nc1ccccn1)c1ccc2c(=O)n3c(nc2c1)CCCCC3, the AC50 [6] is reported as 7.7 µM (active).

With O=c1c(Cl)c(Cl)cnn1Cc1ccccc1Cl the EC50 (Protein RecA) was 7.78 µM (active), the AC50 [7] was 15.5 µM (active) and the IC50 [8] was 2.16 µM (active).

With CN(C)CC(O)c1ccc(C=Cc2ccc(Cl)cc2)cc1 (stereo not drawn) the AC50 [9] was 8.24 µM (active), the AC50 [10] was 14.6 µM (active) and the IC50 (Protein skinhead-1) was 58.1 µM (inactive). For the same compound, the AC50 [11] was 14.3 µM (active), the AC50 [12] was 12.7 µM (active) and the AC50 [13] was 8.82 µM (active).

With Cc1cccc(C)c1-n1nnnc1C(CCc1ccccc1)N1CCC(n2c(O)nc3ccccc32)CC1 (stereo not drawn) the AC50 [9] was 2.71 µM (active), the AC50 [10] was 9.92 µM (active) and the AC50 [11] was 6.12 µM (active). For the same compound, the AC50 [12] was 8.26 µM (active) and the AC50 [13] was 16.6 µM (active).

With C[C@H]1CN([C@@H](C)CO)C(=O)Cc2cc(NC(=O)NC3CCCCC3)ccc2O[C@H]1CN(C)Cc1ccc(-c2ccccc2)cc1 the AC50 [14] was 54.3 µM (active), the AC50 (Paired box protein Pax-8) was 5.8 µM (active) and the AC50 [15] was 2.67 µM (active). The AC50 [16] was > 70 µM (inactive).

For C[C@H](CO)N1C[C@H](C)[C@@H](CN(C)Cc2ccc(Cl)c(Cl)c2)Oc2ccc(NC(=O)Nc3ccc(F)cc3)cc2CC1=O, the AC50 (Paired box protein Pax-8) was 13.2 µM (active) and the AC50 [16] was 54.4 µM (active).

With C[C@@H]1CN([C@H](C)CO)S(=O)(=O)c2ccc(-c3ccc(C(=O)N(C)C)cc3)cc2O[C@@H]1CN(C)C(=O)C1CCC1 the AC50 [17] was 0.493 µM (active).

In the case of CN(C[C@H]1N[C@@H](CO)[C@@H]1c1ccc(C2=CCCC2)cc1)C(=O)c1ccccn1, the AC50 [17] is reported as 2.46 µM (active).
